Source: PMC12184107 (Cell Cycle, 2024)

Assays:
LGR5 = settings: gastric cancer, phage display; cited from earlier work
[1] = biological target: T1, recombinant human LGR5 (leucine-rich repeat-containing G-protein-coupled receptor 5) (human) (UniProt O75473); test: ELISA
T1 sequence (O75473 whole entry, looked up): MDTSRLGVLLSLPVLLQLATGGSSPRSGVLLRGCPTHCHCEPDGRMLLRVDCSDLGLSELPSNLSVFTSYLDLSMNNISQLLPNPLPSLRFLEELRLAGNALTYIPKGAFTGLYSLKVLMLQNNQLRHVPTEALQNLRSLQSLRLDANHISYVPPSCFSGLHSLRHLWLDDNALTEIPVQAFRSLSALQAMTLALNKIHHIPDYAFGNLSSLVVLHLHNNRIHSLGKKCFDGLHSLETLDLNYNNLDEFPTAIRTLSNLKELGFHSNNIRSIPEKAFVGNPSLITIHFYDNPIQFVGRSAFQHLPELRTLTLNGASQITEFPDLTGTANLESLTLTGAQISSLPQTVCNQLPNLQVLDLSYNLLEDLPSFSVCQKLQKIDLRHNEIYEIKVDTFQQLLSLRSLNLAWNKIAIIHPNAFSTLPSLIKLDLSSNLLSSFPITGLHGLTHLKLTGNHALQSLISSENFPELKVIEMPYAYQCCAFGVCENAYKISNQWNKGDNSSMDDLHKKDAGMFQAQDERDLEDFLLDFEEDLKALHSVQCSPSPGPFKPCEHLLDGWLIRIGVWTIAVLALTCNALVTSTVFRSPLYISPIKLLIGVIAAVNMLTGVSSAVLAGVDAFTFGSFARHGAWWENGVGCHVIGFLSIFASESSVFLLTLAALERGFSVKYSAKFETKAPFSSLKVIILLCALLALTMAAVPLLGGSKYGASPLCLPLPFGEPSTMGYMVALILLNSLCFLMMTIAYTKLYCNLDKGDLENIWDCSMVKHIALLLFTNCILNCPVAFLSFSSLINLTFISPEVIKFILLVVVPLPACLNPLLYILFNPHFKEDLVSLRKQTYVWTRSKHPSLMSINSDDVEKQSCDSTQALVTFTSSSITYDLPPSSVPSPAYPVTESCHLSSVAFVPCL

EC50 [1] [nM] | Substance | LGR5 binding (LGR5)
 | IPQILSI | possessed LGR5 binding capabilities
0.04 | recombinant human R-spondin 1 (from UniProt Q2MKA7 21-263) (ligand) | 
